What was measured:
[1] = target: T1, NK1 receptor (Cavia porcellus, UniProt P30547); assay: Antagonism of iodinated tachykinin binding: NK1 receptor affinity in guinea pig lungs (125I-Bolton Hunter Lys-3 labeled substance P); settings: 125I-substance P 0.1 nM, 90 min room temperature, mean of several experiments
T1 construct: evaluated in guinea pig lungs; tissue Keystone Biologicals, Cleveland, Ohio; host or cells: guinea pig lung
Method: (§1) The NK1 receptor affinity of proposed tachykinin antagonists was evaluated in guinea pig lungs (Keystone Biologicals, Cleveland, Ohio) and affinity for the NK2 receptor evaluated in HSKR-1 cells (which are mouse 3T3 fibroblasts expressing the human jejunal NK2 receptor). Tissues or cells were homogenized with a Polytron in 15 volumes of 50 mM Tris-HCl buffer (pH 7.4, 4° C.) and centrifuged. The pellet was resuspended in Tris-HCl buffer and was centrifuged; the pellet was washed twice by resuspension. The final pellet was resuspended at a concentration of 40 mg/ml for tissues and 20 mg/ml for cells in incubation buffer and remained at room temperature for at least 15 min prior to use. Receptor binding was initiated by addition of 250 ul membrane preparation in duplicate to 0.1 nM of the following radioligands: ^125 I-Bolton Hunter Lys-3 labeled substance P and ^125 iodohistidyl-1-neurokinin A; in a final volume of 500 ul of buffer containing 50 mM Tris-HCl (pH 7.4 at room temperature), 0.1% bovine serum albumin, 2 mM MnCl2, 40 ug/ml bacitracin, 4 μg/ml leupeptin and chymostatin, 1 μM thiorphan and various doses of the putative tachykinin antagonists. Incubations were performed at room temperature for 90 min (NK1 receptor assays) or 2 hr (NK2 receptor assay); binding was terminated by addition of 50 mM Tris-HCl buffer (pH 7.4, 4° C.) and filtration under vacuum through GF/B filters presoaked with 0.1% polyethyleneimine (NK, receptor assays) or 0.5% bovine serum albumin (NK2 receptor assay). Filter bound radioactivity was quantitated in a gamma counter. Nonspecific binding was defined as binding in the presence of 1 μM substance P or neurokinin A. Specific binding was calculated by subtracting nonspecific binding from total binding. Competition of iodinated SP or NKA binding by test compounds or standards was expressed as a percentage of this maximum competition. IC50 values (concentration required to inhibit 50% of receptor binding) were generated for each of the test compounds by nonlinear regression using an iterative curve fitting program (GraphPAD Inplot, San Diego, Calif.).
(§2) IC50 values for some of the compounds of the present invention are found in Table 1 and represent the mean of several experiments.

[2] = target: T2, human jejunal NK2 receptor (Homo sapiens, UniProt P21452); assay: Antagonism of iodinated tachykinin binding: NK2 receptor affinity in HSKR-1 cells (125 iodohistidyl-1-neurokinin A); settings: HSKR-1 cells (mouse 3T3 fibroblasts expressing human jejunal NK2 receptor); 125I-neurokinin A 0.1 nM; 2 hr room temperature; mean of several experiments
T2 construct: expressed in transfected cells; host or cells: HSKR-1 cells (mouse 3T3 fibroblasts)
T2 sequence (P21452 1-398): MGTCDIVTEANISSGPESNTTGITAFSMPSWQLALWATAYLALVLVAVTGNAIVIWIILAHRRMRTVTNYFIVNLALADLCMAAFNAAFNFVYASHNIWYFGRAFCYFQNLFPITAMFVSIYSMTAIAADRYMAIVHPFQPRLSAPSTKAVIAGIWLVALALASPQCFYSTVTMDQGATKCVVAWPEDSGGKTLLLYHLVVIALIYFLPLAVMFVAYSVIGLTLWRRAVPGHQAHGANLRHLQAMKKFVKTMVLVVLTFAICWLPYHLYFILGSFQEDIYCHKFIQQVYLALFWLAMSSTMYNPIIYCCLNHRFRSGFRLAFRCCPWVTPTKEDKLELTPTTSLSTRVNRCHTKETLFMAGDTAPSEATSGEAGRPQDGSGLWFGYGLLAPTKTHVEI
Method: as §1, §2

T1 sequence (P30547 whole entry): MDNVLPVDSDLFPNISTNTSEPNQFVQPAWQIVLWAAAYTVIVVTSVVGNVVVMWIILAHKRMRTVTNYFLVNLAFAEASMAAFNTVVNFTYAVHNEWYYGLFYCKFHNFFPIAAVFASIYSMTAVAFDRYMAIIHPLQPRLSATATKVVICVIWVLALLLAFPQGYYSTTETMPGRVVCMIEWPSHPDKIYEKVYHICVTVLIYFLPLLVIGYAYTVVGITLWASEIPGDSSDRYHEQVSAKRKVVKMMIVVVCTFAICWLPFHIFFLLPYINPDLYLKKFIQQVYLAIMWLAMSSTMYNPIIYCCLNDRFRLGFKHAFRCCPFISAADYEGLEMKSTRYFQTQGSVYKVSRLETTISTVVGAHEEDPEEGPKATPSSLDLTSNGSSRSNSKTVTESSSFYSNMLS

Row | Structure (SMILES) | IC50 [1] | IC50 [2]
1 | COC(=O)[C@H](Cc1c[nH]c2ccccc12)NCCN[C@@H](Cc1ccc2ccccc2c1)C(=O)N(C)Cc1ccccc1 [Compound No. 5] | 78.1 nM | 284 nM
2 | COC(=O)[C@H](Cc1c[nH]c2ccccc12)NCCN[C@@H](Cc1ccccc1)C(=O)N(C)Cc1ccccc1OC [Compound No. 4, (S)-N-(2-Methoxybenzyl)-N-methyl-2-[[(S)-2-(1H-indol-3-yl)-1-carboxymethyl-ethylamino]-ethylamino]-3-phenyl-propionamide] | 146 nM | 271 nM
3 | COC(=O)[C@H](Cc1c[nH]c2ccccc12)NCCN[C@@H](Cc1ccc2ccccc2c1)C(=O)N(C)Cc1ccc(Cl)c(Cl)c1 [Compound No. 2, (S)-N-(3,4-Dichlorobenzyl)-N-methyl-2-[[(S)-2-(1H-indol-3-yl)-1-carboxymethyl-ethylamino]-ethylamino]-3-(naphth-2-yl)-propionamide] | 61.5 nM | 632 nM
4 | COC(=O)[C@@H](Cc1c[nH]c2ccccc12)NCCN[C@@H](Cc1ccccc1)C(=O)N(C)Cc1ccccc1 [Compound No. 3, (S)-N-Benzyl-N-methyl-2-[[(R)-2-(1H-indol-3-yl)-1-carboxymethyl-ethylamino]-ethylamino]-3-phenyl-propionamide] | 929 nM | 215 nM
5 | CN(Cc1ccccc1)C(=O)[C@H](Cc1ccccc1)NCCN[C@@H](Cc1c[nH]c2ccccc12)C(N)=O [Compound No. 7, (S)-N-Benzyl-N-methyl-2-[[(S)-2-(1H-indol-3-yl)-1-carboxylic acid amide-ethylamino]-ethylamino]-3-phenyl-propionamide] | 472 nM | 211 nM
6 | COC(=O)[C@H](Cc1c[nH]c2ccccc12)NCCN[C@@H](Cc1ccccc1)C(=O)N(C)Cc1ccccc1 [Compound No. 6, (S)-N-Benzyl-N-methyl-2-[[(S)-2-(1H-indol-3-yl)-1-carboxymethyl-ethylamino]-ethylamino]-3-phenyl-propionamide] | 294 nM | 228 nM
7 | COC(=O)[C@H](Cc1c[nH]c2ccccc12)NCCN(C(=O)OC(C)(C)C)[C@@H](Cc1ccc2ccccc2c1)C(=O)N(C)Cc1ccccc1 [Compound No. 15, (S)-N-Benzyl-N-methyl-2-[[(S)-2-(1H-indol-3-yl)-1-carboxymethyl-ethylamino]-N'-(t-butoxycarbonyl)ethylamino]-3-(naphth-2-yl)-propionamide] | > 10000 nM | 2560 nM

More lines, now with the values ahead:

Row | IC50 [1] | IC50 [2] | Structure (SMILES)
8 | 953 nM | 131 nM | CC(Cc1c[nH]c2ccccc12)NCCN[C@@H](Cc1ccccc1)C(=O)N(C)Cc1ccccc1 (mixture of isomers) [Compound No. 11, (S)-N-Benzyl-N-methyl-2-[[(R and S)-2-(1H-indol-3-yl)-1-methyl-ethylamino]-ethylamino]-3-phenyl-propionamide]
9 | 631 nM | 2560 nM | COC(=O)[C@H](Cc1c[nH]c2ccccc12)NCCN[C@@H](Cc1ccccc1)CN(C)C(=O)c1cc(OC)c(OC)c(OC)c1 [Compound No. 10, N-Methyl-N-[(S)-2-[[(S)-2-(1H-indol-3-yl)-1-carboxymethyl-ethylamino]-ethylamino]-3-phenyl-propyl]-(3,4,5-trimethoxy)benzamide]
10 | 10000 nM | 1220 nM | COC(=O)[C@H](Cc1c[nH]c2ccccc12)NCCN[C@@H](Cc1ccccc1)CN(C)C(=O)c1ccccc1 [Compound No. 14, N-Methyl-N-[(S)-2-[[(S)-2-(1H-indol-3-yl)-1-carboxymethyl-ethylamino]-ethylamino]-3-phenyl-propyl]-benzamide]
11 | 1430 nM | 1440 nM | COC(=O)[C@H](Cc1ccccc1)NCCN[C@@H](Cc1ccccc1)C(=O)N(C)Cc1ccccc1 [Compound No. 12, (S)-N-Benzyl-N-methyl-2-[[(S)-2-phenyl-1-carboxymethyl-ethylamino]-ethylamino]-3-phenyl-propionamide]
12 | 778 nM | 114 nM | CN(Cc1ccccc1)C(=O)[C@H](Cc1ccccc1)NCCNCCc1c[nH]c2ccccc12 [Compound No. 9]
13 | 2410 nM | 4710 nM | COC(=O)[C@@H](NCCN[C@@H](Cc1ccccc1)C(=O)N(C)Cc1ccccc1)c1ccccc1 [Compound No. 13, (S)-N-Benzyl-N-methyl-2-[[(S)-1-phenyl-1-carboxymethyl-methylamino]-ethylamino]-3-phenyl-propionamide]
14 | 711 nM | 1990 nM | COC(=O)[C@H](Cc1c[nH]c2ccccc12)NCCN[C@@H](Cc1ccccc1)C(=O)N(C)Cc1cc(OC)c(OC)c(OC)c1 [Compound No. 8, (S)-N-(3,4,5-Trimethoxybenzyl)-N-methyl-2-[[(S)-2-(1H-indol-3-yl)-1-carboxymethyl-ethylamino]ethylamino]-3-phenyl-propionamide]
15 | 3800 nM | 1580 nM | CN(Cc1ccccc1)C(=O)[C@H](Cc1ccccc1)NCCN[C@@H](Cc1c[nH]c2ccccc12)C(=O)O [Compound No. 16, (S)-N-Benzyl-N-methyl-2-[[(S)-2-(1H-indol-3-yl)-1-carboxy-ethylamino]-ethylamino]-3-phenyl-propionamide]

— US5597845A, “Substituted alkyldiamine derivatives” (Merrell Pharmaceuticals Inc., priority 1994, dated 1997)
